For assay [1], the system named is heart slice cultures. The following applies: 10, 100 nmol/L and 1 μmol/L, 30 days after plating, 37° C., monitored 3 min after stimulation. The procedure:
(§1) Cultures were prepared from ventricular sections of 3 day-old rats (Charles River, France) or 8 weeks-old human embyros. The hearts were removed and placed in Phosphate-Buffered Saline (PBS), atria were removed and the ventricles sliced at 1 mm-thickness using a rodent heart matrix (Harvard Apparatus). The heart slices were immediately transferred to a Millicell-CM 0.4 μm membrane (Millipore, France) and the insert placed into a 6 well-plate containing 1 ml of medium.
(§2) The culture medium consisted of DMEM/F12 medium supplemented with 20% Knockout Serum Replacement, 1% non essential amino acids, 2 mM L-glutamine, 0.1 mM β-mercaptoethanol, and 1% PS (Invitrogen, France). Heart slices were maintained for 30-80 days at 37° C. in a humidified atmosphere containing 5% CO2.
(§3) Further functional characterization of the contractile function of ventricular slices was carried out on 24 slices, at 30 days after plating, using a stereomicroscope and a temperature-controlled stage set at 37° C., following incubation with 10, 100nM and 1 μM of epinephrine (Sigma, France). Beating frequency was monitored 3 min after pharmacological stimulation.

The subject of the next assay is human heart slices. As to conditions: slices from 8 week-old human embryo. On the procedure: as §1, §2, §3
Assay [2] deals with heart slice cultures. On the procedure:
Additional analysis was performed on 3 slices, at 30 days after plating using a confocal laser scanning microscope (Zeiss), following incubation with 5 μM fluo-4 AM (Invitrogen, France) for 20 min at 37° C.
To monitor spontaneous Ca2+ spiking, heart slice cultures, were loaded with 5 μmol/L Fluo-4 AM ester and the temporal change of fluorescent intensity was measured at physiological temperature (37° C.).

Molecules are shown by their SMILES. Where two headings read alike, the source gives them in different places.

`CNC[C@H](O)c1ccc(O)c(O)c1` [epinephrine]: the “spontaneous beating frequencies of heart slice” value was “increased the spontaneous beating frequencies of heart slice in dose-response manner” with heart slice cultures [1] and “increased the frequencies of spontaneous beating in dose-response manner” in the assay with heart slice cultures [1] (listed as Epinepfrine). Moreover, the “spontaneous beating frequency of human heart slices” value in the assay with human heart slices is recorded as “increased spontaneous beating frequency of both human heart slices, in a dose-dependent manner”; in the assay on human heart slices (listed as Epinephrine), “increases the frequencies of beating in human heart slices”. Further, the “Ca2+-transient amplitude and frequency” value in the assay with heart slice cultures [2] (heart slice loaded with fluo-4, confocal analysis) is “dose-dependent increase in Ca2+-transient amplitude and frequency”. For the same compound, the “concentration giving maximal response” value in the assay on heart slice cultures [2] (tested 10, 100 nmol/L and 1 μmol/L) was 1 µmol/L.

The values are drawn from US20100203575A1, “In Vitro Beating Heart Model” (INSERM (Institut National de la Sante et de la Recherche …, priority 2007, published 2010).
